# “Also recorded” adds a separate entry of the source. Read-outs that look alike come from different tables or passages of the source. Where a SMILES comes first, the peptide text is derived from it. Bridges are numbered along the chain shown (N, C = ends).
# Legend:
# [1] = tested on: colonic mucosa of mice with TNBS-induced acute colitis; experiment: Cytokines in colonic mucosa, TNBS-induced acute colitis; assay type: in vivo, mouse; conditions: Figure 5c, mean of 8 mice
# Experimental: Control mice received 50% ethanol alone.
# Protein extracts were isolated by homogenisation of colonic segments (50 mg tissue/mL) in 50 mM Tris-HCl, pH 7.4, with 0.5 mM DTT, and 10 μg/mL of a cocktail of proteinase inhibitors (all from Sigma-Aldrich). Samples were centrifuged at 30,000×g for 20 min and stored at –80 °C until cytokine determination.
# [2] = tested on: serum of mice with TNBS-induced acute colitis; experiment: Serum cytokines in TNBS-induced acute colitis; assay type: in vivo, mouse
# Description: In both TNBS-induced acute and chronic colitis, animals were daily monitored for the appearance of diarrhea, body weight loss and survival. At different time points, colitis signs were scored in base of stool consistency and rectal bleeding by two blinded observers using the following scale: 0 = normal stool appearance, 1 = slight decrease in stool consistency, 2 = moderate decrease in stool consistency, 3 = moderate decrease in stool consistency and presence of blood in stools, 4 = severe watery diarrhea and moderate/severe bleeding in stools. […] After macroscopic examination, various colonic segments were immediately frozen in liquid nitrogen for protein extraction and cytokine determination or for histopathological analysis as described below. In some animals, MLNs were isolated 10 days after TNBS injection and assayed for proliferation, cytokine production and flow cytometric analysis as described below. Moreover, sera were collected by cardiac puncture at day 10 after TNBS injection and the levels of cytokines and anti-TNBS IgG were determined by specific ELISAs as described below. […]
# Supplementary Table 3. Serum cytokines in TNBS-in du ced acu t e col i ti s.
# Treatments were administered in a curative regime as described in Figure 4 and sera were collected 10
# days after TNBS infusion. n=8 mice/group. Data are mean ± SEM. […]
# [3] = tested on: LPS-activated mouse Raw 264 macrophages; experiment: Inflammatory response of LPS-activated RAW 264 macrophages; assay type: cell-based; conditions: 100 nM (Supplementary Fig. 2c)
# Experimental: Inflammatory response was assayed in vitro on the mouse macrophagic cell line RAW 264 macrophages and mouse primary peritoneal macrophages. RAW 264 cells (ATTC, TIB-71) were grown at 5 × 10^5 cells/mL in complete DMEM medium (DMEM supplemented with 100 U/mL penicillin/streptomycin, 2 mM L-glutamine, 50 μM 2-mercaptoethanol and 10% heat-inactivated fetal calf serum) until reaching a confluence of 80% and then incubated in the absence (used as baseline reference) or presence of LPS (1 μg/mL, from E. coli serotype 055: B5, Sigma). Cortistatin (mouse/rat CST-14, Bachem) and its synthesised analogues were added at a concentration of 100 nM at the beginning of culture. After 24 h of culture, supernatants were harvested. Levels of the inflammatory cytokines TNFα and IL6 were determined by a specific sandwich ELISA by using capture/biotinylated detection monoclonal antibodies from BD Pharmingen (for TNFα: capture antibody clone G281-2626, cat # 551225; biotin antibody clone MP6-XT3, cat # 554415; for IL6: capture antibody clone MP5-20F3, cat # 554398; biotin MP5-32C1, cat # 554402) according to the manufacturer’s recommendations. Nitric oxide content in culture supernatants was determined by quantifying nitrite levels using the Griess assay.
# SSTR2 [4] = target: T1, SSTR2 (Homo sapiens, UniProt P30874); experiment: Radio-ligand binding assay, SSTR2
# T1 construct: host or cells: CHO-K1
# T1 sequence (P30874 whole entry): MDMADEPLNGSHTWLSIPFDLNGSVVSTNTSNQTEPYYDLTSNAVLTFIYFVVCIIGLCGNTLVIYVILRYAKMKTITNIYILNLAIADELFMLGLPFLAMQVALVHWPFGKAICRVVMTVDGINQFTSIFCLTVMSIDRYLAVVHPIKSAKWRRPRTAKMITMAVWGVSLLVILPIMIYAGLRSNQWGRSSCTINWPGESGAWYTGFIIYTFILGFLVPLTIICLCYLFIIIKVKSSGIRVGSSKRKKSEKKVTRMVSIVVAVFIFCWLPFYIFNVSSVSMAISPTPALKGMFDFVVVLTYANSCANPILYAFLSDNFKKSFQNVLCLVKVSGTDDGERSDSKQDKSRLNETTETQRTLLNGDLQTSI
# Experimental: (§1) Graphical and tabular representation of the percentage inhibition of specific binding, as IC50 (nM) binding values for the analogues against the five SSTR1-SSTR5 is represented in Supplementary Fig. 1b and Supplementary Table 1. […] IC50 values were determined by a non-linear, least squares regression analysis using Prism 9 (GraphPad Software, USA), using the Dose-response inhibition (three-parameters) model. […]
# (§2) (SSTR1-SSTR5), using a Radio-ligand Binding Assay (Supplementary Figure 1b). Cells were incubated in HEPES buffer pH 7.4 with the new analogues of Cortistatin at 10 different concentrations in a range […]
# (§3) specifically bound (performed at Eurofins Panlabs, Inc.). The radioactivity obtained in the absence of SST14 is considered as total binding and that obtained in the presence of 1 µM of SST14 is considered as nonspecific binding. Specific binding was considered as the difference between total and nonspecific.
# (§4) Biochemical assay results are presented as the percent inhibition of specific bindin g (% inhib ition) as a […]
# (§5) part of each binding assay with the five (SSTR1 -SS T R5 ) . I C50 values were determined by a non-linear, least squares regression analysis using Prism 9 (GraphPad Software, USA), using the Dose -response inhibit ion (t hree-parameters) model.
# [5] = tested on: anti-CD3-activated mouse spleen cells; experiment: Proliferation and Th1-type cytokines of anti-CD3-activated spleen cells; assay type: cell-based; conditions: 100 nM (Supplementary Fig. 2d)
# Experimental: Spleen cells were isolated from C57Bl/6J mice (male, 8-weeks-old, Charles River) by mechanical cell dissociation, filtration using a nylon filter and red cell lysing. The spleen cells were incubated in complete DMEM medium at a density of 10^6 cells/mL for 2 h. Nonadherent cells (consisting in 80% of T cells) were cultured in complete DMEM medium and stimulated with anti-mouse CD3e antibody (2 μg/mL, clone 145-2C11, BD Pharmingen, cat #: 553058) in the presence of different Cortistatin analogues (100 nM). After 48 h, culture supernatants were collected and the levels of cytokines (IFNγ and IL2) were determined by a specific sandwich ELISA by using capture/biotinylated detection monoclonal antibodies from BD Pharmingen (for IFNγ: capture antibody clone XMG1.2, cat # 554408; biotin antibody clone R4-6A2, cat # 551506; for IL2: capture antibody clone S4B6, cat # 554375; biotin antibody clone JES6-5H4, cat # 554426) according to the manufacturer’s recommendations. To determine the effect of different analogues of Cortistatin in proliferation, the cells were cultured for 72 h, 0.5 μCi (0.0185 MBq)/well of [^3H]-thymidine was added for the last 8 h of culture, harvested the membranes and [^3H]-thymidine incorporated was quantified by scintillation counting.
# SSTR3 [6] = target: T2, SSTR3 (Homo sapiens, UniProt P32745); experiment: Radio-ligand binding assay, SSTR3
# T2 construct: host or cells: CHO-K1
# T2 sequence (P32745 whole entry): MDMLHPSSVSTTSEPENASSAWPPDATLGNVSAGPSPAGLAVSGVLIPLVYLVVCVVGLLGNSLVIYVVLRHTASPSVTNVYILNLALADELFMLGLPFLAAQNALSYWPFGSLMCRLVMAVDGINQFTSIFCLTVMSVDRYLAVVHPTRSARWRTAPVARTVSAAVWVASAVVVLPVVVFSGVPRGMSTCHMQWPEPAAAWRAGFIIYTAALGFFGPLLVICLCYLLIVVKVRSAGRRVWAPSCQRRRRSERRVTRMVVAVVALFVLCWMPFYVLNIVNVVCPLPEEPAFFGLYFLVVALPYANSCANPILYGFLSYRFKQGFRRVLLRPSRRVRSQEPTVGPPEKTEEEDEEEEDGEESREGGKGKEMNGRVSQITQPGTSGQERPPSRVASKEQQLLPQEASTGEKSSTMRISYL
# Experimental: as §1, §2, §3, §4, §5
# SSTR5 [7] = target: T3, SSTR5 (Homo sapiens, UniProt P35346); experiment: Radio-ligand binding assay, SSTR5
# T3 construct: host or cells: CHO-K1
# T3 sequence (P35346 whole entry): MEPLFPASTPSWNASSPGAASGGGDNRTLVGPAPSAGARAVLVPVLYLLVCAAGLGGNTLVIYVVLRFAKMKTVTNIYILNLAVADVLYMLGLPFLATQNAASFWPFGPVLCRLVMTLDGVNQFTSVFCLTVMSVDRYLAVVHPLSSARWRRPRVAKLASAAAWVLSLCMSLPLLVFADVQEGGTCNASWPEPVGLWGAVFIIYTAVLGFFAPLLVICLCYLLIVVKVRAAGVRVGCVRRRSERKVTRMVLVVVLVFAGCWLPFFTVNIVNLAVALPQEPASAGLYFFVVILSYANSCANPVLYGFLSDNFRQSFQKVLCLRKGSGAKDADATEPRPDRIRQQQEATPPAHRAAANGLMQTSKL
# Experimental: as §1, §2, §3, §4, §5
# SSTR1 = target: T4, SSTR1 (Homo sapiens, UniProt P30872); experiment: Radio-ligand binding assay, SSTR1
# T4 construct: host or cells: CHO-K1
# T4 sequence (P30872 whole entry): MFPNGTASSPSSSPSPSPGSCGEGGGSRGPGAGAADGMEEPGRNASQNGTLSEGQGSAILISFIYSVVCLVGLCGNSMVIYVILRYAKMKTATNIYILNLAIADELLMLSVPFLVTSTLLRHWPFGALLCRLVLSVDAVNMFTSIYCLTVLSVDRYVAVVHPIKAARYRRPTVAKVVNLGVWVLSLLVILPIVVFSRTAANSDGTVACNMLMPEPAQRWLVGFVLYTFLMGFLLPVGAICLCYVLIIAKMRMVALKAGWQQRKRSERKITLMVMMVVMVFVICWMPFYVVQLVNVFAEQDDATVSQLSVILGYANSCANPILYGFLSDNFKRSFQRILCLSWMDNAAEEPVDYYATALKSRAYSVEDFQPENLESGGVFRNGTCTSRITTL
# Experimental: as §1, §2, §3, §4, §5
# [8] = Aqueous solubility (observed on sample preparation); assay type: physicochemical; conditions: aqueous buffer solution; observation in words
# Description: For instance, it is well known that substitution of L-Trp to D-Trp increases the population of the native β-turn and of and the analogue half-life in serum. […] For these reasons, in all the CST analogues, L-Trp was replaced by D-Trp in position 7 and Ser11 was replaced by Thr11 to stabilise the β-turn; and either Phe6 or Phe5 were replaced by Msa (analogues 2 and 4; Fig. 1c). In addition to these modifications, terminal residues were acylated as N-octanoyl amides (analogues 3 and 5). The reasoning behind this modification was to increase the hydrophobicity of the analogue and mimic a similar modification to that observed in ghrelin, a neuropeptide produced by endocrine cells in the digestive tract and that shares with CST the ability to interact with the growth hormone secretagogue receptor GHSR-1a[28].
# We also characterised the conformational properties of analogues 2, 3 and 4. […] In these cases (Fig. 8a–c), the aromatic residues 5 and 10 align on one side of the molecule, whereas the side chain of residue 6 is located on the other side of the peptide plane. In this conformation, D-Trp7 is close to the pair of aromatic rings 5 and 10, due to the presence of weak NOEs involving the ring protons of D-Trp7 and the methyl protons of Msa5. […]
# SSTR3 [9] = target: T2, SSTR3; design: method as in earlier work; conditions: literature values marked *; ref 1 (supplementary references); cited from earlier work
# Description: (§6) The peptide backbone is shown in gold and the N- and C-terminus residues, as well as the disulfide bond are labelled. Representative aromatic clusters. All side chains are shown to facilitate structural analysis. Side chains participating in the interactions are specifically labelled. c Schematic representation of Cortistatin-14 sequence. […] 1-2. […] 3-1. […] 3-1. […] 3-1.
# SSTR2 [10] = target: T1, SSTR2; design: method as in earlier work; conditions: literature values marked *; ref 1 (supplementary references); cited from earlier work
# Description: as §6
# SSTR4 = target: T5, SSTR4 (Homo sapiens, UniProt P31391); design: method as in earlier work; conditions: literature values marked *; ref 1 (supplementary references); cited from earlier work
# T5 construct: host or cells: CHO-K1
# T5 sequence (P31391 whole entry): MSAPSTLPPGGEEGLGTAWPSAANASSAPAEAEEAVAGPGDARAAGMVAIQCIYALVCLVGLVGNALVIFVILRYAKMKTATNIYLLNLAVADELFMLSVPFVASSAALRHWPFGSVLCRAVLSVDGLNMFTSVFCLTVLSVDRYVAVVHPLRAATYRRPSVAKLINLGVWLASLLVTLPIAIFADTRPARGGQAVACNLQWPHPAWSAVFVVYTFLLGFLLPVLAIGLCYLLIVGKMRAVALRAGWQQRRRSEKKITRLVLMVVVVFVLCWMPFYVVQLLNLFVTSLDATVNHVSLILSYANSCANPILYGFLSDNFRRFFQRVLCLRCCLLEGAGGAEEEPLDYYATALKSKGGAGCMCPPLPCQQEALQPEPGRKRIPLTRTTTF
# Description: as §6
# SSTR5 [11] = target: T3, SSTR5; design: method as in earlier work; conditions: literature values marked *; ref 1 (supplementary references); cited from earlier work
# Description: as §6
# [12] = TNBS acute colitis, curative regime, sera 10 days after TNBS, mean ± SEM, n=8
# [13] = acute colitis induced by TNBS, serum, mean of 8 mice
compound,measurement,setting,value
"Nc1ccc(O)c(C(=O)O)c1 [Mesalazine, 5-aminosalycilic acid]",IL10 (ng/g colon),[1],3.75 ng/g colon
same,Serum IL6,[2]; [12],773 ± 46 pg/mL
same,Serum IL17,[2]; [12],233 ± 15 pg/mL
same,"IL6, serum level",[2]; [13],0.77 ng/mL
same,"TNFa, serum level",[2]; [13],0.78 ng/mL
same,"IL17, serum level","[2]; acute colitis induced by TNBS, serum, mouse 1 of the group",0.024 ng/mL
same,"IL17, serum level","[2]; acute colitis induced by TNBS, serum, mouse 2 of the group",0.024 ng/mL
same,"IL17, serum level","[2]; acute colitis induced by TNBS, serum, mouse 3 of the group",0.029 ng/mL
same,"IL17, serum level","[2]; acute colitis induced by TNBS, serum, mouse 4 of the group",0.017 ng/mL
same,"IL17, serum level","[2]; acute colitis induced by TNBS, serum, mouse 5 of the group",0.019 ng/mL
same,"IL17, serum level","[2]; acute colitis induced by TNBS, serum, mouse 6 of the group",0.025 ng/mL
same,"IL17, serum level","[2]; acute colitis induced by TNBS, serum, mouse 7 of the group",0.021 ng/mL
same,"IL17, serum level","[2]; acute colitis induced by TNBS, serum, mouse 8 of the group",0.028 ng/mL
"Cc1cc(C)c(C[C@@H]2NC(=O)[C@H](CC(N)=O)NC(=O)[C@H](CCCCN)NC(=O)[C@@H](NC(=O)[C@@H]3CCCN3)CSSC[C@@H](C(=O)N[C@@H](CCCCN)C(=O)O)NC(=O)[C@H](CO)NC(=O)[C@H]([C@@H](C)O)NC(=O)[C@H](Cc3ccccc3)NC(=O)[C@H]([C@@H](C)O)NC(=O)[C@H](CCCCN)NC(=O)[C@@H](Cc3c[nH]c4ccccc34)NC(=O)[C@H](Cc3ccccc3)NC2=O)c(C)c1 [A4, [L-Msa5_D-Trp7_L-Thr11]-CST 14]",effect on the inflammatory responses in activated macrophages,[3],no significant effects
same,IC50,SSTR2 [4],9.8 nM
same,effect on the inflammatory responses in activated lymphocytes,[5],no significant effects
same,IC50,SSTR3 [6],1.8 nM
same,IC50,SSTR5 [7],4 nM
same,IC50,SSTR1,14.7 nM
CCCCCCCC(=O)N1CCC[C@H]1C(=O)N[C@H]1CSSC[C@@H](C(=O)O)NC(=O)[C@H](CO)NC(=O)[C@H]([C@@H](C)O)NC(=O)[C@H](Cc2ccccc2)NC(=O)[C@H]([C@@H](C)O)NC(=O)[C@H](CCCCN)NC(=O)[C@@H](Cc2c[nH]c3ccccc23)NC(=O)[C@H](Cc2ccccc2)NC(=O)[C@H](Cc2c(C)cc(C)cc2C)NC(=O)[C@H](CC(N)=O)NC(=O)[C@H](CCCCN)NC1=O [analogue 6],aqueous solubility,[8],reduced its aqueous solubility; also recorded: significant impact on the solubility of the sample
C[C@@H](O)[C@@H]1NC(=O)[C@H](CCCCN)NC(=O)[C@H](Cc2c[nH]c3ccccc23)NC(=O)[C@H](Cc2ccccc2)NC(=O)[C@H](Cc2ccccc2)NC(=O)[C@H](CC(N)=O)NC(=O)[C@H](CCCCN)NC(=O)[C@@H](NC(=O)[C@@H]2CCCN2)CSSC[C@@H](C(=O)N[C@@H](CCCCN)C(=O)O)NC(=O)[C@H](CO)NC(=O)[C@H](CO)NC(=O)[C@H](Cc2ccccc2)NC1=O [CST] (H-PCKNFFWKTFSSCK-OH; disulfide 2-13),IC50,SSTR3 [9],0.3 nM
same,IC50,SSTR2 [10],0.09 nM
same,IC50,SSTR4,0.2 nM
same,IC50,SSTR5 [11],0.3 nM

# From article PMC7994712 (Nature Communications, 2021)
